Results on 12 compounds are retold here after ChEMBL document CHEMBL5257025, “Artemisinin-Derived Dimers: Potent Antimalarial and Anticancer Agents” (J Med Chem, 2016).

The subject of assay [1] is Plasmodium falciparum. In words: Antimalarial activity against Plasmodium falciparum HB3 assessed as inhibition of malarial growth. Type of assay: functional, organism-based.
The subject of assay [2] is Plasmodium falciparum. In words: Antimalarial activity against Plasmodium falciparum K1 assessed as inhibition of malarial growth. The class given is functional, organism-based.
The test system of assay [3] is Plasmodium falciparum. In words: microbe, parasite or virus in culture. As to conditions: K1.
Description: Antiplasmodial activity against Plasmodium falciparum K1 assessed as inhibition of parasitic growth
For another assay, the system named is MDA-MB-231. In words: Antiproliferative activity against human MDA-MB-231 cells assessed as reduction in cell viability measured after 48 hrs by MTT assay. Type of assay: functional, cell-based. To be noted: MDA-MB-231, 48 h.
The test system of another assay is A549. In words: cells. As to conditions: Homo sapiens, A549, 48 h.
Another assay concerns HT-29. In words: cells. To be noted: Homo sapiens, HT-29, 72 h.

Broadly, the IC50 is the concentration needed to halve the response being measured. On to `C[C@@H]1CC[C@H]2[C@@H](C)C(CCOC(=O)CCCC(=O)OCCC3O[C@H]4O[C@@]5(C)CC[C@H]6[C@H](C)CC[C@@H]([C@H]3C)[C@@]46OO5)O[C@H]3O[C@@]4(C)CC[C@@H]1[C@]32OO4` (stereo not given in full), for which the IC50 is 1.1 nM with Plasmodium falciparum [1] and 2.4 nM with Plasmodium falciparum [2].

With `C[C@@H]1CC[C@H]2[C@@H](C)C(CCOCc3cccc(COCCC4O[C@H]5O[C@@]6(C)CC[C@H]7[C@H](C)CC[C@@H]([C@H]4C)[C@@]57OO6)c3)O[C@H]3O[C@@]4(C)CC[C@@H]1[C@]32OO4` (stereo not given in full), the values for the half-inhibitory concentration (IC50) in the assay with Plasmodium falciparum [1] and in the assay on Plasmodium falciparum [2] were 2.1 nM and 2.7 nM, respectively.

With `C[C@@H]1CC[C@H]2[C@@H](C)C(CCOC(=O)c3ccccc3C(=O)OCCC3O[C@H]4O[C@@]5(C)CC[C@H]6[C@H](C)CC[C@@H]([C@H]3C)[C@@]46OO5)O[C@H]3O[C@@]4(C)CC[C@@H]1[C@]32OO4` (stereo not given in full), the half-inhibitory concentration (IC50) in the assay with Plasmodium falciparum [1] was determined as 1.6 nM; in the assay on Plasmodium falciparum [2], 2.6 nM.

With `C[C@@H]1CC[C@H]2[C@@H](C)C(CSCCCCCSCC3O[C@@H]4O[C@]5(C)CC[C@@H]6[C@@H](C)CC[C@H]([C@@H]3C)[C@]46OO5)O[C@H]3O[C@@]4(C)CC[C@@H]1[C@]32OO4` (stereo not given in full), half-maximal inhibition in the assay on Plasmodium falciparum [3] (IC50) required 12 nM.

Turning to `C[C@@H]1CC[C@H]2[C@@H](C)C(CSCCCSCC3O[C@H]4O[C@@]5(C)CC[C@H]6[C@H](C)CC[C@@H]([C@H]3C)[C@@]46OO5)O[C@H]3O[C@@]4(C)CC[C@@H]1[C@]32OO4` (stereo not given in full), in the assay on Plasmodium falciparum [3], half-maximal inhibition (IC50) was put at 13 nM.

Compound `C[C@@H]1CC[C@H]2[C@@H](C)C(CSCCSCC3O[C@H]4O[C@@]5(C)CC[C@H]6[C@H](C)CC[C@@H]([C@H]3C)[C@@]46OO5)O[C@H]3O[C@@]4(C)CC[C@@H]1[C@]32OO4` (stereo not given in full) yielded an IC50 with Plasmodium falciparum [3] of 7.4 nM.

As to `C[C@@H]1CC[C@H]2[C@@H](C)C(CCOC(=O)c3ccc(C(=O)OCCC4O[C@H]5O[C@@]6(C)CC[C@H]7[C@H](C)CC[C@@H]([C@H]4C)[C@@]57OO6)cc3)O[C@H]3O[C@@]4(C)CC[C@@H]1[C@]32OO4` (stereo not given in full), the IC50 with Plasmodium falciparum [3] came out at 4.6 nM.

Compound `C[C@@H]1CC[C@H]2[C@@H](C)C(CCOC(=O)c3cccc(C(=O)OCCC4O[C@H]5O[C@@]6(C)CC[C@H]7[C@H](C)CC[C@@H]([C@H]4C)[C@@]57OO6)c3)O[C@H]3O[C@@]4(C)CC[C@@H]1[C@]32OO4` (stereo not given in full) gave an IC50 in the assay on Plasmodium falciparum [3] of 42.2 nM.

Regarding `C[C@@H]1CC[C@H]2[C@@H](C)C(CCOC(=O)CCC(=O)OCCC3O[C@H]4O[C@@]5(C)CC[C@H]6[C@H](C)CC[C@@H]([C@H]3C)[C@@]46OO5)O[C@H]3O[C@@]4(C)CC[C@@H]1[C@]32OO4` (stereo not given in full), the half-inhibitory concentration (IC50) amounted to 1.4 nM with Plasmodium falciparum [1] and 1.8 nM with Plasmodium falciparum [2].

In the case of `C[C@@H]1CC[C@H]2[C@@H](C)C(CSCCCCSC3O[C@H]4O[C@@]5(C)CC[C@H]6[C@H](C)CC[C@@H]([C@H]3C)[C@@]46OO5)O[C@H]3O[C@@]4(C)CC[C@@H]1[C@]32OO4` (stereo not given in full), the 50% inhibitory concentration (IC50) with Plasmodium falciparum [3] turned out to be 5.7 nM.

`C[C@@H]1CC[C@H]2[C@@H](C)C(OCCN/C(=N/c3cc(C(F)(F)F)ccc3F)NCCOC3O[C@@H]4O[C@]5(C)CC[C@@H]6[C@@H](C)CC[C@H]([C@@H]3C)[C@]46OO5)O[C@H]3O[C@@]4(C)CC[C@@H]1[C@]32OO4` (stereo not given in full): the values for the half-maximal inhibitory concentration (IC50) in the assay on MDA-MB-231, in the assay with A549 and in the assay with HT-29 were 1420 nM, 240 nM and 20 nM, respectively.

For `C[C@@H]1CC[C@H]2[C@@H](C)C(OCCN/C(=N/c3cccc(Cl)c3)NCCOC3O[C@@H]4O[C@]5(C)CC[C@@H]6[C@@H](C)CC[C@H]([C@@H]3C)[C@]46OO5)O[C@H]3O[C@@]4(C)CC[C@@H]1[C@]32OO4` (stereo not given in full), the IC50 worked out at 1170 nM in the assay on MDA-MB-231, 720 nM in the assay with A549 and 100 nM in the assay with HT-29.
